Earlier results on one compound are cited in patent publication US20140023692A1, “DRUG DELIVERY DEVICE” (priority 2010, published 2014).

Data set [1] concerns Staphylococcus epidermidis.
For data set [2] the following is noted: topical application, rabbit.
Setting [3] is: inflamed eyes (intravitreal Staphylococcus aureus, 24 h after inoculation).

Converted amounts (≈) assume the structure as drawn. “And” between values parts separate entries of the source, which are not always exact repeats. Equal values may be shown once. Read-outs that look alike come from different tables or passages of the source.

Turning to `O=C(O)c1cn(C2CC2)c2cc(N3CCNCC3)c(F)cc2c1=O` [ciprofloxacin], the MIC90 with Pseudomonas was 0.50 µg/mL and 0.626 µg/mL; in data set [1] it was 0.25 µg/mL and 0.375 µg/mL; in the data set with Propionibacterium acnes, 0.35 µg/mL (≈ 1.06 µM); in the data set with Proteus it was 0.267 µg/mL (≈ 0.806 µM); with Streptococcus pyogenes, 0.782 µg/mL (≈ 2.36 µM); in the data set on Enterobacter, 0.206 µg/mL (≈ 0.622 µM). Moreover, the MIC90 in the data set on Klebsiella was 0.295 µg/mL (≈ 0.89 µM); in the data set with Haemophilus influenzae, 0.014 µg/mL (≈ 0.0423 µM); in the data set on Serratia, 0.12 µg/mL (≈ 0.362 µM); in the data set on Staphylococcus aureus, 0.57 µg/mL and 0.796 µg/mL; with Bacillus cereus, 0.25 µg/mL (≈ 0.754 µM). The “Mean aqueous concentration of ciprofloxacin” value was 3.65 µg/mL in data set [2] (setting [3]) and 2.16 µg/mL in [2] (normal eyes). For the same compound, the “Mean vitreous concentration of ciprofloxacin” value in [2] (setting [3]) is 0.32 µg/mL; in data set [2] (normal eyes), 0.08 µg/mL.
